In one test the test system is STEME. The experiment in a line: Herbicidal post-emergence action - Part I. In kind it is in vivo, Stellaria media. The note with it: 1280 g/ha, one-leaf stage, rated visually after about 3 weeks vs untreated controls. The method, boiled down: (§1)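 Greenhouse weeds grown in sandy loam were sprayed post-emergence at the one-leaf stage, 2-3 weeks after sowing. Compounds were applied as WP or EC in water with 0.5% additive at 600 L/ha, at 1280 g/ha or below. Visual damage was rated after about 3 weeks versus untreated plants (0-100%).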

A further test concerns AMARE. The experiment in a line: Herbicidal post-emergence action - Part I. Conditions: one-leaf stage, rated visually after about 3 weeks vs untreated controls. It is filed as in vivo, Amaranthus retroflexus. Summed up:
as §1

A further test has as its system VIOTR. As to the kind of experiment: Herbicidal pre-emergence action - Part II. In kind it is in vivo, Viola tricolor. The text has this: (§2) Seeds of mono- and dicotyledonous weed plants and crop plants were sown, in plastic or organic planting pots, in sandy loam and covered with soil. The compounds according to the invention, formulated in the form of wettable powders (WP) or as emulsifiable concentrates (EC), were applied to the surface of the covering soil as aqueous suspension or emulsion, with the addition of 0.5% of an additive, at an application rate of 600 1 of water/ha (converted). Following treatment, the pots were placed in a greenhouse and kept under optimum growth conditions for the test plants. The visual grading of the damage to the test plants was carried out after ca. 3 weeks in comparison to untreated controls (herbicidal effect in percent (%): 100% effect = plants have died off, 0% effect = as control plants). Tables C1 to C12 below show the effects of selected compounds of the general formula (I) according to table 1 on various harmful plants and an application rate corresponding to 320 g/ha or below obtained by the experimental procedure mentioned above. Table C1: pre-emergence activity at 320g/ha against ABUTH in %

A further test concerns LOLRI. As to the kind of experiment: Herbicidal pre-emergence action - Part I. In kind it is in vivo, Lolium rigidum. The note with it: visual grading after ca. 3 weeks vs untreated controls. An excerpt:
(§3) Seeds of mono- and dicotyledonous weed plants were sown in plastic pots (double sowings with one species of mono- and one species of dicotyledonous weed plants per pot), in sandy loam, and covered with soil. The compounds according to the invention, formulated in the form of wettable powders (WP) or as emulsifiable concentrates (EC), were applied to the surface of the covering soil as aqueous suspension or emulsion, with the addition of 0.5% of an additive, at an application rate of 600 1 of water per hectare (converted). Following treatment, the pots were placed in a greenhouse and kept under optimum growth conditions for the test plants. The visual grading of the damage to the test plants was carried out after ca. 3 weeks in comparison to untreated controls (herbicidaleffectinpercent(%):100%effect=plantshavediedoff,0%effect=ascontrolplants). [formula]
(§4) Tables A1 to A12, below, show the effects of selected compounds of the general formula (I) according to table 1 on various harmful plants and an application rate corresponding to 1280 g/ha or below obtained by the experimental procedure mentioned above. Table A1: pre-emergence activity at 1280g/ha against ABUTH in %

For test [1], the system named is VERPE. As to the kind of experiment: Herbicidal post-emergence action - Part I. In kind it is in vivo, Veronica persica. The note with it: one-leaf stage, rated visually after about 3 weeks vs untreated controls. Summed up: as §1
The test system of test [2] is ALOMY. The experiment in a line: Herbicidal post-emergence action - Part I. It is filed as in vivo, Alopecurus myosuroides. The note with it: one-leaf stage, rated visually after about 3 weeks vs untreated controls. On the procedure:
(§5) Seeds of mono- and dicotyledonous weed plants were placed in plastic pots in sandy loam soil (doubly sown with in each case one species of mono- or dicotyledonous weed plants per pot), covered with soil and cultivated in a greenhouse under controlled growth conditions. 2 to 3 weeks after sowing, the test plants were treated at the one-leaf stage. The compounds of the invention, formulated in the form of wettable powders (WP) or as emulsion concentrates (EC), were applied onto the green parts of the plants as aqueous suspension or emulsion with addition of 0.5% additive at a water application rate of 600 liters per hectare (converted). After the test plants had been kept in the greenhouse under optimum growth conditions for about 3 weeks, the activity of the preparations was rated visually in comparison to untreated controls. For example, 100% activity = the plants have died, 0% activity = like control plants. Tables B1 to B12, below, show the effects of selected compounds of the general formula (I) according to table 1 on various harmful plants and an application rate corresponding to 1280 g/ha or below obtained by the experimental procedure mentioned above. Table B1a: post-emergence activity at 1280g/ha against ABUTH in %

The subject of test [3] is VERPE. The experiment in a line: Herbicidal pre-emergence action - Part II. It is filed as in vivo, Veronica persica.
Excerpt: as §2

The test system of another test is MATIN. The experiment in a line: Herbicidal pre-emergence action - Part I. The note with it: visual grading after ca. 3 weeks vs untreated controls. In kind it is in vivo, Matricaria inodora. The method, boiled down: (§6)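 Visual % injury, ~3 weeks post-application, relative to untreated pots. Treatment: aqueous WP/EC preparation with 0.5% additive sprayed pre-emergence on soil at 600 l/ha, application rate 1280 g/ha or less.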

The next test relates to POAAN. As to the kind of experiment: Herbicidal post-emergence action - Part I. In kind it is in vivo, Poa annua. Conditions: 1280 g/ha, one-leaf stage, rated visually after about 3 weeks vs untreated controls. Summed up: as §1
For the next test, the system named is SETVI. The experiment in a line: Herbicidal pre-emergence action - Part I. In kind it is in vivo, Setaria viridis. The note with it: visual grading after ca. 3 weeks vs untreated controls. The method, boiled down:
as §6

Test [4] concerns ALOMY. The experiment in a line: Herbicidal pre-emergence action - Part I. It is filed as in vivo, Alopecurus myosuroides. Conditions: visual grading after ca. 3 weeks vs untreated controls.
Excerpt: as §3, §4

For another test, the system named is ECHCG. The experiment in a line: Herbicidal pre-emergence action - Part I. It is filed as in vivo, Echinochloa crus-galli. The note with it: visual grading after ca. 3 weeks vs untreated controls. Summed up:
as §6

For a further test, the system named is DIGSA. As to the kind of experiment: Herbicidal post-emergence action - Part I. It is filed as in vivo, Digitaria sanguinalis. Conditions: one-leaf stage, rated visually after about 3 weeks vs untreated controls. On the procedure:
as §5

Test [5] deals with VERPE. As to the kind of experiment: Herbicidal pre-emergence action - Part I. It is filed as in vivo, Veronica persica. The note with it: visual grading after ca. 3 weeks vs untreated controls.
Excerpt: as §3, §4

A further test has as its system BRSNW. As to the kind of experiment: Pre-emergence effects on crop plants. In kind it is in vivo, Brassica napus. Conditions: 80 g/ha; Table D5; crop plant. An excerpt:
Seeds of mono- and dicotyledonous weed plants and crop plants were sown, in plastic or organic planting pots, in sandy loam and covered with soil. The compounds according to the invention, formulated in the form of wettable powders (WP) or as emulsifiable concentrates (EC), were applied to the surface of the covering soil as aqueous suspension or emulsion, with the addition of 0.5% of an additive, at an application rate of 600 1 of water/ha (converted). Following treatment, the pots were placed in a greenhouse and kept under optimum growth conditions for the test plants. The visual grading of the damage to the test plants was carried out after ca. 3 weeks in comparison to untreated controls (herbicidal effect in percent (%): 100% effect = plants have died off, 0% effect = as control plants). Tables D1 to D5 below show the effects of various compounds of the general formula (I) according to Table 1 on various crop plants and an application rate corresponding to 320 g/ha or below obtained by the experimental procedure mentioned above in Biological Examples, Section C. Table […]: pre-emergence activity at 320g/ha against ZEAMX in %

Take `Cc1ccsc1C1=NOC2(CCCN(Cc3c(F)cccc3F)C2=O)C1` (racemic) [Compound I-2]: the “post-emergence activity at 1280g/ha against STEME in %” value in the test with STEME was 90%. The “post-emergence activity at 1280g/ha against AMARE in %” value in the test on AMARE amounted to 90%. In addition, in the test on VIOTR (80 g/ha, Table C12b), the “pre-emergence activity against VIOTR” value was determined as 90%. Also, the “pre-emergence activity against VIOTR” value in the test on VIOTR (320 g/ha, Table C12a) stood at 90%. For the same molecule, the “pre-emergence activity at 320g/ha against LOLRI in %” value with LOLRI (320 g/ha) was 100%. Besides, the “pre-emergence activity at 1280g/ha against LOLRI in %” value in the test on LOLRI (1280 g/ha) turned out to be 100%. Besides, in the test with VERPE [1] (320 g/ha), the “post-emergence activity at 320g/ha against VERPE in %” value is recorded as 90%. Also, in the test with VERPE [1] (1280 g/ha), the “post-emergence activity at 1280g/ha against VERPE in %” value worked out at 90%. Further, the “post-emergence activity at 1280g/ha against ALOMY in %” value in the test on ALOMY [2] was determined as 90%. Also, in the test on VERPE [3] (80 g/ha, Table C11b), the “pre-emergence activity against VERPE” value is on record as 90%. Further, in the test with VERPE [3] (320 g/ha, Table C11a), the “pre-emergence activity against VERPE” value is 90%. Besides, in the test with MATIN, the “pre-emergence activity at 320g/ha against MATIN in %” value is 90% and the “pre-emergence activity at 1280g/ha against MATIN in %” value amounted to 90%. The “post-emergence activity at 1280g/ha against POAAN in %” value in the test with POAAN was determined as 90%. Besides, the “pre-emergence activity at 80g/ha and against SETVI in %” value in the test on SETVI (80 g/ha) was determined as 100%. For the same molecule, in the test with SETVI, the “pre-emergence activity at 320g/ha and against SETVI in %” value is given as 100%; the “pre-emergence activity at 1280g/ha and against SETVI in %” value is 100%. The “pre-emergence activity at 1280g/ha against ALOMY in %” value with ALOMY [4] is 90%. Also, in the test with ECHCG, the “pre-emergence activity at 320g/ha against ECHCG in %” value amounted to 100% and the “pre-emergence activity at 1280g/ha against ECHCG in %” value was 100%. Besides, the “post-emergence activity at 320g/ha against DIGSA in %” value with DIGSA (320 g/ha) is recorded as 90%. For the same molecule, the “post-emergence activity at 1280g/ha against DIGSA in %” value with DIGSA (1280 g/ha) turned out to be 90%.

In the case of `O=C1N(Cc2ccccc2F)CCC12CC(c1c(F)cccc1F)=NO2` (racemic) [Compound I-10], in the test on STEME, the “post-emergence activity at 1280g/ha against STEME in %” value worked out at 90%. Moreover, in the test with AMARE (80 g/ha), the “post-emergence activity at 80g/ha against AMARE in %” value stood at 90%. The “post-emergence activity at 320g/ha against AMARE in %” value in the test on AMARE (320 g/ha) amounted to 90%. Further, the “post-emergence activity at 1280g/ha against AMARE in %” value in the test on AMARE was determined as 90%. Also, in the test on VERPE [5], the “pre-emergence activity at 1280g/ha against VERPE in %” value turned out to be 90%. In addition, in the test on MATIN, the “pre-emergence activity at 320g/ha against MATIN in %” value is recorded as 90% and the “pre-emergence activity at 1280g/ha against MATIN in %” value is 90%. The “pre-emergence activity against BRSNW” value in the test on BRSNW worked out at 20%. Further, in the test with SETVI, the “pre-emergence activity at 320g/ha and against SETVI in %” value is given as 90%; the “pre-emergence activity at 1280g/ha and against SETVI in %” value turned out to be 100%. Moreover, the “pre-emergence activity at 1280g/ha against ECHCG in %” value in the test on ECHCG worked out at 100%.

For `Cc1ccsc1C1=NOC2(CCN(Cc3c(F)cccc3F)C2=O)C1` (racemic) [Compound I-16, 7-(2,6-Difluorobenzyl)-3-(3-methyl-2-thienyl)-1-oxa-2,7-diazaspiro[4.4]non-2-en-6-one], the “post-emergence activity at 1280g/ha against STEME in %” value in the test on STEME is on record as 90%. Further, in the test with VERPE [5], the “pre-emergence activity at 1280g/ha against VERPE in %” value is reported as 100%. In addition, in the test on MATIN, the “pre-emergence activity at 320g/ha against MATIN in %” value was determined as 90% and the “pre-emergence activity at 1280g/ha against MATIN in %” value is 90%. In the test on POAAN, the “post-emergence activity at 1280g/ha against POAAN in %” value was determined as 90%. In the test on BRSNW, the “pre-emergence activity against BRSNW” value is 20%. Also, in the test with SETVI, the “pre-emergence activity at 320g/ha and against SETVI in %” value was determined as 100%; the “pre-emergence activity at 1280g/ha and against SETVI in %” value is given as 100%. Besides, the “pre-emergence activity at 1280g/ha against ALOMY in %” value with ALOMY [4] worked out at 90%. Also, in the test on ECHCG, the “pre-emergence activity at 320g/ha against ECHCG in %” value amounted to 100% and the “pre-emergence activity at 1280g/ha against ECHCG in %” value is 100%.

The values are drawn from patent EP4509511A1, “SUBSTITUTED SPIRO-ISOXAZOLINYL LACTAMS, SALTS THEREOF AND THEIR USE AS HERBICIDALLY ACTIVE SUBSTANCES” (Bayer Aktiengesellschaft, priority 2023, dated 2025).
